The text below walks through data of PubChem BioAssay (NCI).

Holding throughout (assay): growth of human tumour cells (NCI), 48 h
Experiment [1] deals with UACC-62 melanoma.
The test system of experiment [2] is MALME-3M melanoma.
Experiment [3] deals with OVCAR-4 ovarian.
Experiment [4] has as its system SN12C renal.
Experiment [5] deals with HCC-2998 colon.
Experiment [6] concerns OVCAR-8 ovarian.
For experiment [7], the system named is NCI-H23 lung.
In experiment [8] the test system is NCI-H226 lung.
Experiment [9] relates to BT-549 breast.
The test system of experiment [10] is MDA-MB-231 breast.

Each structure is given as a SMILES string. Where “and” joins values, the source holds several entries; their conditions need not be identical. Equal values may be shown once.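 How tested: cells in 96-well plates exposed to compound for 48 hours at five concentrations. GI50 = concentration required for 50% inhibition of growth. TGI marks complete inhibition of growth.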 A value given as a limit tells only on which side of the number the result lay.

Turning to `COC(=O)C1=C(C(=O)OC)C23C=CC=CC24C(C(=O)OC)=C(C(=O)OC)C4C1C3` (configuration not stated), the TGI in experiment [1], in experiment [2], in experiment [3], in [4], in experiment [5] and in experiment [6] was more than 100 µM each time. Moreover, the TGI in experiment [7] is more than 100 µM.

`Cc1c(O)c(=O)ccn1C1OC(CO)C(O)C1O` (configuration not stated): the TGI in experiment [1], in experiment [2], in experiment [3], in experiment [8], in experiment [4] and in [6] was more than 100 µM each time.

Take `C=C(CN1CCN(c2cccc(C(F)(F)F)c2)CC1)c1ccc(C(=O)Nc2ccccc2N)cc1`: the GI50 in experiment [1] is 0.409 µM; in experiment [3], 3.94 µM; in [8] it was 1.89 µM; in [9], 0.332 µM; in [10], 0.941 µM; in [4], 2.19 µM. The figures for the GI50 in experiment [6] and in [7] were 1.4 µM and 3.72 µM, respectively. Further, the TGI in experiment [1] was found to be 4.89 µM; in experiment [3], 41 µM; in [8], 20.1 µM; in [9], 5.06 µM; in experiment [10], 3.39 µM; in [4], 14.5 µM. For the same compound, the TGI in experiment [6] is 17.2 µM; in [7] it was more than 32.9 µM.

Turning to `NC(=O)c1csc(C2C=CC(CO)O2)n1` (configuration not stated), the TGI in [1], in [2], in experiment [3], in experiment [8], in experiment [4] and in [5] was more than 100 µM in each case. The TGI in experiment [6] and in [7] was more than 100 µM throughout.

With `CC1=C(C(=O)Nc2ccccc2C)C(c2ccc([N+](=O)[O-])cc2)C(C(=O)Nc2ccccc2C)=C(C)N1`, the TGI in experiment [1], in [2], in experiment [3], in experiment [8], in [4] and in experiment [5] was more than 100 µM each time. For the same compound, the TGI in [6] and in [7] was more than 100 µM throughout.

Turning to `Cc1ccc(S(=O)(=O)CNC(=S)CCCC(=S)NCS(=O)(=O)c2ccc(C)cc2)cc1`, the TGI in experiment [1], in experiment [2], in experiment [3], in [8], in [4] and in experiment [5] was more than 100 µM throughout. The TGI in experiment [6] and in experiment [7] was more than 100 µM in each case.

For `Cc1ccc(S(=O)(=O)N2CCC3(C(/C=C/c4ccccc4)=Nc4ccccc43)C2c2ccccc2)cc1` (configuration not stated), the TGI in [1], in experiment [2], in experiment [3], in [8], in experiment [4] and in experiment [5] was more than 100 µM each time. Also, the TGI in experiment [6] and in [7] was more than 100 µM throughout.

As to `N/N=C1\c2ccccc2C2/C(=N\N)c3ccccc3C12` (configuration not stated), the TGI in experiment [1], in experiment [2], in experiment [3], in experiment [4], in experiment [5] and in experiment [6] was more than 100 µM in each case. The compound further had a TGI in experiment [7] of more than 100 µM.

As for `C=CCNC1=C(C(=O)OCC)C(=O)CO1`, the TGI in [1], in experiment [2], in experiment [3], in experiment [8], in experiment [4] and in experiment [5] was more than 100 µM throughout. Also, the TGI in experiment [6] and in [7] was more than 100 µM in each case.

With `CC1CCCC(C(O)CC2CC(=O)N(c3ccccc3)C(=O)C2)C1=O` (configuration not stated), the TGI in experiment [1], in experiment [2], in [3], in experiment [8], in [4] and in experiment [5] was more than 100 µM in each case. The TGI in experiment [6] and in experiment [7] was more than 100 µM throughout.

Regarding `CC(=O)NNc1nc(C)c(C(/C=C/c2ccc(Cl)cc2)=N\NS(=O)(=O)c2ccc(C)cc2)s1`, the TGI in experiment [1], in [2], in experiment [3], in [8], in [4] and in [5] was more than 100 µM each time. For the same compound, the TGI in experiment [6] and in experiment [7] was more than 100 µM throughout.

As to `Cc1ccc(NC(=O)CC(=O)n2nc(-c3ccccc3)c(N=Nc3ccc(Cl)cc3)c2-c2ccccc2)cc1`, the TGI in [1], in [2], in experiment [3], in [8], in experiment [4] and in experiment [5] was more than 100 µM in each case. Moreover, the TGI was 60.6 µM in [6] and more than 100 µM in [7].

For the compound `CC(=O)OCC1OC(OC2CC3C(C)(C)C(OC(C)=O)CC[C@]3(C)C3CCC45CC4(CC[C@H]5C(C)CC(O)C4OC4(C)C)[C@]23C)C(O)C(O)C1O` (some centres not stated), the GI50 in experiment [1] was more than 60 µM; in [2] it was 4.67 µM; in experiment [3] it was 15.3 µM; in [4], 4.44 µM; in experiment [5], 2.68 µM; in experiment [6] it was 3 µM. Besides, the GI50 in experiment [7] was 2.55 µM. The TGI in experiment [2] was 16.6 µM and 8.6 µM; in experiment [3], 6.27 µM and 38.9 µM; in [8], 11.6 µM; in experiment [4], 8.75 µM and 14.9 µM; in experiment [5], 2.71 µM and 4.26 µM; in [6] it was 8.24 µM and 9.67 µM. Besides, in [7], the TGI was 10.4 µM and 6.58 µM.

With `CCCCCCCCCCCCCC/C(C(=O)OC)=C(/O)C(=O)OCC`, the TGI in experiment [1] is 65.1 µM; in [2], more than 100 µM; in experiment [3] it was more than 100 µM; in experiment [8] it was more than 100 µM; in experiment [4] it was more than 100 µM; in experiment [5], 37.3 µM. For the same compound, the TGI in [6] and in experiment [7] was more than 100 µM throughout.

Turning to `C/C(=N\NC(=O)CC(=O)Nc1ccc(Cl)cc1)c1cc2ccccc2oc1=O`, the TGI in experiment [1], in experiment [2], in experiment [8], in experiment [4], in experiment [6] and in experiment [7] was more than 100 µM in each case.

Take `CCc1cccc(C(C)C)c1NC(=O)C(=O)C(C(=O)C(=O)OC)c1nc2ccccc2[nH]c1=O` (configuration not stated): the TGI in experiment [1], in experiment [2], in experiment [3], in experiment [8], in [4] and in experiment [5] was more than 100 µM throughout. The TGI in experiment [6] and in experiment [7] was more than 100 µM throughout.

For the compound `NC1=NC(c2ccccc2)N=C(Nc2ccccc2)N1` (configuration not stated), the GI50 in experiment [1], in [3], in experiment [8], in [9], in [10] and in [4] was more than 100 µM in each case. For the same compound, the GI50 in experiment [6] and in [7] was more than 100 µM throughout. Moreover, the TGI in [1], in experiment [3], in [8], in [9], in [10] and in experiment [4] was more than 100 µM in each case. The TGI in experiment [6] and in experiment [7] was more than 100 µM throughout.

`O=C(CC/C(C/C(=N/O)c1ccc(F)cc1)=N/O)N(Cc1ccccc1)Cc1ccccc1`: the TGI in [1], in experiment [2], in [3], in experiment [8], in [4] and in [5] was more than 100 µM in each case. Also, the TGI in experiment [6] and in [7] was more than 100 µM each time.

For `C=C(CN(CC(=C)C(=O)c1ccccc1)C(C)(C)C)C(=O)c1ccccc1`, the TGI in experiment [1] was 32.4 µM; in experiment [2], 29.7 µM; in experiment [3] it was 29.3 µM; in experiment [8] it was 48.4 µM; in experiment [4], 32.5 µM; in experiment [5] it was 33.3 µM. The TGI amounted to 67.9 µM in [6] and 32.7 µM in [7].

Consider `FC(F)(F)c1ccc(C=NC23CC4CC(CC(C4)C2)C3)cc1`, for which the TGI in experiment [1], in experiment [2], in experiment [3], in experiment [8], in [4] and in [5] was more than 100 µM each time. Also, the TGI in experiment [6] and in [7] was more than 100 µM throughout.

Take `CC12O[C@H](c3ccccc3)[C@H](c3ccccc3)N1C(=O)C1(C(=O)OCc3ccccc3)CC12` (some centres not stated): the TGI in experiment [1], in experiment [2], in [3], in experiment [8], in experiment [4] and in [5] was more than 100 µM throughout. The compound also yielded a TGI in [6] of more than 100 µM.

As for `CC[C@@]1(O)C(=O)OCc2c1cc1n(c2=O)Cc2cc3cc(OC)ccc3nc2-1`, the GI50 in experiment [2] is 0.0257 µM; in experiment [3], 0.682 µM; in experiment [10], 0.735 µM; in [5] it was 0.147 µM and 0.0656 µM; in experiment [6], 0.0153 µM and 0.0239 µM; in [7], 0.0273 µM. Further, the TGI in experiment [2] is 0.548 µM; in experiment [8], 0.063 µM and 0.0968 µM and 0.0206 µM; in experiment [5], 0.29 µM and 1.09 µM and 0.388 µM; in experiment [6], 0.297 µM and 0.35 µM.

For the compound `Cn1cc2c(n1)c(N/N=C/c1ccccc1)nn1nnnc21`, the TGI in [1], in [2], in experiment [3], in experiment [8], in experiment [4] and in experiment [5] was more than 100 µM in each case. The TGI in [6] and in experiment [7] was more than 100 µM in each case.

For the compound `CN(C)c1ccc(/C=C2\CNC/C(=C\c3ccc(N(C)C)cc3)C2=O)cc1`, the TGI in experiment [1] is more than 100 µM; in experiment [2] it was more than 100 µM; in experiment [3], 29.7 µM; in [8], more than 100 µM; in [4] it was 75.4 µM; in [5], more than 100 µM. Besides, the results for the TGI in experiment [6] and in experiment [7] were 43.7 µM and more than 100 µM, respectively.

Turning to `COc1ccc(NC(=O)C(=O)NNC(=O)c2sc(NNC(C)=O)nc2C)c([N+](=O)[O-])c1`, the TGI in experiment [1], in experiment [2], in experiment [3], in [8], in experiment [4] and in experiment [5] was more than 100 µM in each case. In addition, the TGI in [6] and in experiment [7] was more than 100 µM throughout.

As for `Cc1cc(N(CCC#N)CCC#N)ccc1/C=C(\NC(=O)/C=C/c1ccccc1)NC(=O)Nc1ccc(Cl)cc1`, the TGI in experiment [1], in experiment [2], in experiment [3], in experiment [8], in experiment [4] and in experiment [5] was more than 100 µM throughout. The TGI in [6] and in [7] was more than 100 µM throughout.

On to `CCOP(=O)(CC(=O)C1=C(O)C(CCCNC(=O)OC(C)(C)C)N(Cc2ccc(OC)c(OC)c2)C1=O)OCC` (configuration not stated), for which the TGI in experiment [1], in experiment [2], in [3], in experiment [8], in experiment [4] and in experiment [5] was more than 100 µM in each case. The TGI in experiment [6] and in experiment [7] was more than 100 µM each time.

Take `Cc1cc(Cc2cc(C)c(NC(=O)C(=O)C3C(=O)NC(=S)NC3=O)c(C(C)C)c2)cc(C(C)C)c1NC(=O)C(=O)C1C(=O)NC(=S)NC1=O`: the TGI in [1], in experiment [2], in experiment [3], in experiment [8], in experiment [4] and in experiment [5] was more than 100 µM in each case. In addition, the TGI in experiment [6] and in experiment [7] was more than 100 µM throughout.

For `CC1C=C(OC(=O)c2ccccc2)C(=O)C(n2cc(F)c(=O)n(C(=O)c3ccccc3)c2=O)O1` (configuration not stated), the TGI is 98.6 µM in experiment [1]; 95.7 µM in [2]; more than 100 µM in experiment [3]; more than 100 µM in experiment [4]; more than 100 µM in experiment [6]; more than 100 µM in experiment [7].
